Changes are numbered by the printed parent chain. Blank lines part the entries; values can stand above or below the molecule they belong to.
Columns and labels:
[1] = molecular target: T1, rA1M (recombinant human α1-microglobulin; rA1M-wt and rA1M-035) (Homo sapiens, UniProt P02760); experiment: SPR (BIAcore X100), rA1M captured on immobilized anti-His antibody; assay type: binding
T1 construct: gene AMBP
T1 sequence (P02760 20-202): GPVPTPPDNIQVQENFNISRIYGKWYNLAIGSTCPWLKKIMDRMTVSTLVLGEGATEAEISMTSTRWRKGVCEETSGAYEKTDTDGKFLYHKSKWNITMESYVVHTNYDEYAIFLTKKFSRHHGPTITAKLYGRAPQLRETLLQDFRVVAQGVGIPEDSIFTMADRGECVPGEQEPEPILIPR

[2] = molecular target: T2, rA1M (recombinant human α1-microglobulin; rA1M-wt and rA1M-035) (Homo sapiens, UniProt P02760, N115D/N36D/R85H); experiment: as above; assay type: binding
T2 construct: gene AMBP
T2 sequence (P02760 20-202 N36D/R85H/N115D): T1 sequence (P02760 20-202) with N17D, R66H, N96D

[3] = SEC; 24-mL Superose 12 10/30 GL column, 20 mM Tris-HCl, pH 8.0 + 0.15 M NaCl; 100-200 ug protein loaded; unstressed samples at 0.1 mM or samples stored in PBS at the indicated concentrations, temperatures and times
P02760 = experiment: as above

Kd [1]: 15.8 µM
Kd [2]: 4.45 µM
Molecule: C=CC1=C(C)C2=Cc3c(C=C)c(C)c4[n]3[Fe]([Cl])[n]3c(c(C)c(CCC(=O)O)c3=CC3=NC(=C4)C(C)=C3CCC(=O)O)=CC1=N2 [heme]

Molecule: rA1M-035, recombinant human α1-microglobulin variant with N17D, R66H and N96D
Monomer (%) [3]: 93%

B1: recombinant wild-type human α1-microglobulin (rA1M-wt) (protein)
chain: GPVPTPPDNIQVQENFNISRIYGKWYNLAIGSTCPWLKKIMDRMTVSTLVLGEGATEAEISMTSTRWRKGVCEETSGAYEKTDTDGKFLYHKSKWNITMESYVVHTNYDEYAIFLTKKFSRHHGPTITAKLYGRAPQLRETLLQDFRVVAQGVGIPEDSIFTMADRGECVPGEQEPEPILIPRV
Monomer (%) (P02760): 87%

Source: article PMC6338582, “rA1M-035, a Physicochemically Improved Human Recombinant α1-Microglobulin, Has Therapeutic Effects in Rhabdomyolysis-Induced Acute Kidney Injury” (Antioxidants & Redox Signaling, 2018)
